Test results as given in publication PMC9332833 (Cancers, 2022).

Key:
[1] = system: K562 cells; assay: K562 xenogeneic mouse model, tumor growth; type: in vivo, NSG mice; details: for Tumor weights: mean ± SD, N=4, tumor growth control 9.2±2.1
Method: Statistical analysis was performed using GraphPad Prism version 9.1.0. All in vitro experiments were performed in at least triplicate biological replicates and statistical results are expressed as mean ± standard deviation (SD). Statistical data of animal experiments are expressed as mean ± standard error of the mean (SEM). For experiments involving patients, the normality of the distribution was checked using the Shapiro–Wilk test and the statistical analysis was performed using one-way ANOVA with Dunnett’s post-test * p < 0.05, ** […], *** 0.001 > p > 0.0001, **** p < 0.0001.
Table S3. […] Control and
IP, intraperitoneal administration; O, orally

[2] = system: K562-MDR1 cells; assay: Annexin V-FITC/PI apoptosis measurement, K562-MDR1; type: cell-based, human; details: 5 µM, 24 h
Method: Cells were seeded in 6-well plates (K562 or K562-MDR1) or in 24-well plates (CD34^+ cells). After 24 h, BK124.1 or DMSO was added. After a further 24 h, cells were stained using the Annexin V-FITC kit for the detection of apoptosis (BD, Franklin Lakes, NJ, USA) and immediately analyzed on a BD FACSCalibur using CellQuest software (BD, Franklin Lakes, NJ, USA). […]
incubated overnight at 37 °C and analyzed using an iMark Microp late absorbance reader (Bio-Rad, Hercules, CA, USA). Results were calculated relative to control cells treated with DMSO only.
[…] CD34+ cells were plated at a concentration of 2.5 × 10^5 cells/mL in a 24-well plate. […] A f t e r a further 24 hours, cells were harvested and stained according to the manufacturer's protocol using the Annexin V-FITC kit for the detection of apoptosis (BD, Franklin Lakes, NJ, USA). Stained cells were immediately analyzed on a BD FACSCalibur using CellQuest softwa re (BD, Franklin Lakes, NJ, USA).
Cells were seeded at a concentration of 1-2 × 10^5 cells/mL in a 6-well plate. After 24 hours of pre-incubation, BK124.1 in DMSO was added to the cells (vDMSO/vmedium), and incubated for 24 or 48 hours.
After incubation, cells were washed twice with ice-cold PBS (Mg2+ and Ca2+-free), resuspended in ice-cold 70% ethanol, and placed at -20 °C for 24 hours. […]
Flow cytometry analysis of CD243 (P-glycoprotein) […]

[3] = system: CD34+ cells from CML patients; assay: MTT viability assay, CML CD34+ cells; type: cell-based; details: Homo sapiens, 48 h
Method: Blood samples were taken (venipuncture, EDTA-K2 Vacutainer tubes, Becton Dickinson, Franklin Lakes, NJ, USA) from 8 chronic phase CML patients (CML1–CML8; 4 men and 4 women, aged 39–79) diagnosed at the Department of Hematology, University Clinical Center, Medical University of Warsaw, following their written consent. The diagnosis was carried out by qualified clinical staff based on an interview, blood parameters and molecular tests detecting BCR-ABL1 (transcript b3a2). Peripheral blood mononuclear cells were immediately isolated from the fresh blood sample using standard protocol (Supplementary Methods). […]
Cells were seeded in 96-well plates; after 24 h, medium with the appropriate drug concentration was added to each well. […] Absorbance was read using an iMark Microplate absorbance reader (Bio-Rad, Hercules, CA, USA). Results were calculated relative to cells treated with DMSO only.
[…] Next, we isolated CD34+ cells (EasySep™ Human CD34 Positive Selection Kit II, StemCell Technologies, Vancouver, Canada), counted them and assessed viability with Muse Cell Analyzer (Merck Millipore, Burlington, MA, USA). […] The purity of the live CD34+ fraction was assessed by flow cytometry with anti-human CD34-APC antibody, compared with an appropriate isotype control (Biolegend, San Diego, CA, USA), and propidium iodide (Sigma-Aldrich, St. Louis, MO, USA). […]

In the case of CCC12C(=O)C(CC)(C(c3ccccc3)=C1c1ccccc1)C1C(=O)N(CC(O)CNC(C)C)C(=O)C12 (stereo not drawn) [BK124.1, 4-[2-hydroxy-3-(propan-2-ylamino)propyl]-1,7-diethyl-8,9-diphenyl-4-azatricyclo [5.2.1.02,6]dec-8-ene-3,5,10-trione], the Tumor weights ([1]; 20 mg/kg IP daily 14 days) is reported as 1.6 ± 1.6 g, the Tumor weights ([1]; 30 mg/kg IP daily 14 days) is reported as 1.9 ± 1.8 g and the “Tumor growth versus control groups” value ([1]; BK124.1 20 or 30 mg/kg IP, imatinib 100 mg/kg orally, hydroxyurea 500 mg/kg IP, 1 x daily) is reported as “effectively inhibited”. For the same compound, the Tumor volume ([1]; prolonged treatment (days 4-17), IP 20 or 30 mg/kg, comparable with hydroxyurea or imatinib) was “significant reduction in tumor volume”, the “Apoptosis” value [2] was 30.1% and the IC50 [3] was 1.5 µM.
